Earlier results as cited in PubChem BioAssay AID1259409 (Chemical Carcinogenesis Research Information System (CCRIS), 2018).

System: rodent chemically induced tumor inhibition, incidence and multiplicity
Assay: CCRIS tumor inhibitor studies
Conditions: Carcinogen: DIETHYLNITROSAMINE, 55-18-5, N-METHYL-N-NITROSOUREA, 684-93-5, N-BUTYL-N-(4-HYDROXYBUTYL)NITROSAMINE, 3817-11-6, DIMETHY, Carcinogen: DIETHYLNITROSAMINE, 55-18-5, N-METHYL-N-NITROSOUREA, 684-93-5, N-BUTYL-N-(4-HYDROXYBUTYL)NITROSAMINE, 3817-11-6, DIMETHY, Dose [Inhibitor]: 0, Route [Inhibitor]: ORAL, Species: RAT, Strain/Sex: F344/MALE, Dose [Carcinogen]: 100 MG/KG BW DEN ONCE FOLLOWED BY 20 MG/KG BW MNU 4 TIMES AND 0.05% BBN IN DRINKING WATER DURING FIRST 2 WK THEN 40 MG/K, Promoter: NONE USED

CCOC1=C(O)C(=O)O[C@@H]1[C@@H](O)CO
tumour outcome (control, treated, inhibition, significance) (1% IN THE DIET FOR 24 WK BEGINNING 1 DAY POST CARCINOGEN TREATMENT (STUDY DURATION: 28 WK), Target Tissue: Type of Lesion: URINARY BLADDER: PAPILLOMA): 7%, 7%, 0%, not significant | tumour outcome (control, treated, inhibition, significance) (1% IN THE DIET FOR 30 D BEGINNING 1 DAY PRIOR TO CARCINOGEN TREATMENT (STUDY DURATION: 28 WK), Target Tissue: Type of Lesion: LARGE INTESTINE: ADENOMA): 27%, 33%, -22%, not significant | tumour outcome (control, treated, inhibition, significance) (1% IN THE DIET FOR 30 D BEGINNING 1 DAY PRIOR TO CARCINOGEN TREATMENT (STUDY DURATION: 28 WK), Target Tissue: Type of Lesion: LARGE INTESTINE: CARCINOMA): 7%, 40%, -471%, not significant | tumour outcome (control, treated, inhibition, significance) (1% IN THE DIET FOR 30 D BEGINNING 1 DAY PRIOR TO CARCINOGEN TREATMENT (STUDY DURATION: 28 WK), Target Tissue: Type of Lesion: SMALL INTESTINE: ADENOMA): 33%, 7%, 79%, not significant | tumour outcome (control, treated, inhibition, significance) (1% IN THE DIET FOR 30 D BEGINNING 1 DAY PRIOR TO CARCINOGEN TREATMENT (STUDY DURATION: 28 WK), Target Tissue: Type of Lesion: SMALL INTESTINE: CARCINOMA): 7%, 7%, 0%, not significant | tumour outcome (control, treated, inhibition, significance) (1% IN THE DIET FOR 30 D BEGINNING 1 DAY PRIOR TO CARCINOGEN TREATMENT (STUDY DURATION: 28 WK), Target Tissue: Type of Lesion: THYROID: CARCINOMA): 7%, 0%, 100%, not significant | tumour outcome (control, treated, inhibition, significance) (1% IN THE DIET FOR 30 DAYS BEGINNING 1 DAY PRIOR TO CARCINOGEN TREATMENT (STUDY DURATION: 28 WK), Target Tissue: Type of Lesion: URINARY BLADDER: CARCINOMA): 7%, 7%, 0%, not significant | tumour outcome (control, treated, inhibition, significance) (1% IN THE DRINKING WATER FOR 24 WK BEGINNING 1 DAY POST CARCINOGEN TREATMENT (STUDY DURATION: 28 WK), Target Tissue: Type of Lesion: SMALL INTESTINE: CARCINOMA): 7%, 0%, 100%, not significant
